Test results published in publication PMC4710668, “Bioactivation of food genotoxicants 5-hydroxymethylfurfural and furfuryl alcohol by sulfotransferases from human, mouse and rat: a comparative study” (Archives of Toxicology, 2014).
“And” between values parts separate entries of the source, which are not always exact repeats. Identical values can stand only once. Marks after values point to notes of the source that are not given here.

Assays:
Test in all cases: FFA sulfoconjugation assay (N6-MF-A formation with adenosine as scavenger)
Type in all cases: biochemical
hSULT1C1 = target: T1, hSULT1C1 (Homo sapiens, UniProt O00338)
T1 construct: made in house; host or cells: Salmonella typhimurium TA1538 (cytosolic fraction, not purified)
Protocol: (§1) Cytosolic fractions containing individual SULT forms were prepared from transgenic S. typhimurium TA1538. Table S1 in the Supplementary Material provides a summary of the thirty SULTs used in the current study together with references describing the cloning of the respective S. typhimurium TA1538 strains. The expressed SULT forms are denoted with the prefixes h, m and r for human, mouse and rat enzymes, respectively. Bacteria were grown in Luria Broth medium containing ampicillin (100 µg/ml) by stirring for 8 h at 200 revolutions/min at 37 °C. The bacterial suspensions were centrifuged at 5,000 g for 10 min. The sediments were washed twice with 25 ml of 10 mM potassium phosphate buffer (pH 7.4)/50 mM potassium chloride (KCP buffer) and centrifuged again. The pellets were taken up in 800 µl KCP buffer and sonicated thrice for 15 s with 30 s pauses in between. The soluble fraction was attained by centrifuging for 1 h at 100,000 g. The supernatants (in the following termed cytosolic preparations) were frozen at −80 °C. The protein concentrations were determined according to a bicinchoninic acid (BCA) assay protocol. The SULT concentrations in the cytosolic preparations were estimated after electrophoretic separation and immunodetection using inclusion bodies of different SULT forms as standards (Teubner et al. [2007]). The preparation of SULT inclusion bodies and the immunodetection of SULTs is described in the Supplementary Material, which also contains a representative immunoblot of different amounts of rSult1a1standard and a cytosolic preparation of S. typhimurium expressing rSult1a1 (Fig. S1).
(§2) The reaction mixtures were prepared as described for HMF. In addition, they contained 10 mM adenosine as a nucleophilic scavenger. Following incubation for 20 min at 37 °C, sulfoconjugation reactions were stopped by adding 100 µl cold methanol containing 175 fmol of [^15N5]N ^6-MF-A as the internal standard, mixed and centrifuged at 15,000 g for 10 min. The clear supernatants were subjected to UPLC-MS/MS analyses. Incubations were performed as quadruplicates. At higher concentrations, FFA reacts spontaneously with adenosine at low, but detectable, levels. To correct for the SULT-independent adduct formation, mixtures with SULT-deficient cytosols were carried along simultaneously in duplicate. Controls were subtracted from the experimental samples.
(§3) The ribonucleoside adduct N ^6-((furan-2-yl)methyl)-adenosine (N ^6-MF-A) was analyzed by isotope-dilution UPLC-MS/MS with the same system described above using a HSS T3 column (1.8 µm, 2.1 × 100 mm, Waters). Samples of 8 µl were eluted with 10 mM ammonium bicarbonate buffer, pH 8.0 (A) and methanol (B) using an 6-min gradient from 98 % solvent A to 15 % solvent A at 0.35 ml/min flow rate (Yin et al. [2013]). The electrospray interface of the mass spectrometer operated in the positive ion mode. The fragmentations of N ^6-MF-A into the aglycone cation [N ^6-((furan-2-yl)methyl)-adenine-H]^+ (m/z = 348.1 → 216.1), the cleavage of the 2-methylfuranyl cation (m/z = 348.1 → 81.0) and the release of [N ^6-methyl-adenine-H]^+ (m/z = 348.1 → 148.0) were monitored together with the corresponding fragmentations of the isotope-labeled internal standard [^15N5]N ^6-MF-A for the formation of the aglycone (m/z = 353.1 → 221.1), the 2-methylfuran cation (m/z = 353.1 → 81.0) and ^15N5-labeled N ^6-methyl-adenine (m/z = 353.1 → 153.0). The N ^6-MF-A content of the incubation mixture was calculated from the ratio of peak areas resulting from the total ion current of all three MRM signals of the analyte. For the fragmentation of N ^6-MF-A ([^15N5]N ^6-MF-A), collision energies were 20, 25 and 35 eV for the transitions m/z = 348.1 → 216.1 (m/z = 353.1 → 221.1), m/z = 348.1 → 148.0 (m/z = 353.1 → 153.0) and m/z = 348.1 → 81.0 (m/z = 353.1 → 81.0), respectively. […]

hSULT2A1 = target: T2, hSULT2A1 (Homo sapiens, UniProt Q06520)
T2 construct: made in house; host or cells: Salmonella typhimurium TA1538 (cytosolic fraction, not purified)
T2 sequence (Q06520 1-285): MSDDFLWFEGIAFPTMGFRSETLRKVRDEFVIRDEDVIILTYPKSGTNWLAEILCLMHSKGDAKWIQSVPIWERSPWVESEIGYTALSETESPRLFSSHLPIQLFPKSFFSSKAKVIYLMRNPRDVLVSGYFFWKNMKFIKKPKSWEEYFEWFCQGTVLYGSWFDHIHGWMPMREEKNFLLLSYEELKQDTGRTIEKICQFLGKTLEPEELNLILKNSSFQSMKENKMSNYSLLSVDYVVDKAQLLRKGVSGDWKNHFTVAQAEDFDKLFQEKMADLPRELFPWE
Protocol: as §1, §2, §3

hSULT1A2 = target: T3, hSULT1A2 (Homo sapiens, UniProt P50226)
T3 construct: made in house; host or cells: Salmonella typhimurium TA1538 (cytosolic fraction, not purified)
Protocol: as §1, §2, §3

hSULT1C2 = target: T4, hSULT1C2 (Homo sapiens, UniProt O75897)
T4 construct: made in house; host or cells: Salmonella typhimurium TA1538 (cytosolic fraction, not purified)
Protocol: as §1, §2, §3

hSULT1C3 = target: T5, hSULT1C3 (Homo sapiens, UniProt Q6IMI6)
T5 construct: made in house; host or cells: Salmonella typhimurium TA1538 (cytosolic fraction, not purified)
Protocol: as §1, §2, §3

hSULT1A1 = target: T6, hSULT1A1 (Homo sapiens, UniProt P50225)
T6 construct: made in house; host or cells: Salmonella typhimurium TA1538 (cytosolic fraction, not purified)
Protocol: as §1, §2, §3

hSULT1E1 = target: T7, hSULT1E1 (Homo sapiens, UniProt P49888)
T7 construct: made in house; host or cells: Salmonella typhimurium TA1538 (cytosolic fraction, not purified)
T7 sequence (P49888 1-294): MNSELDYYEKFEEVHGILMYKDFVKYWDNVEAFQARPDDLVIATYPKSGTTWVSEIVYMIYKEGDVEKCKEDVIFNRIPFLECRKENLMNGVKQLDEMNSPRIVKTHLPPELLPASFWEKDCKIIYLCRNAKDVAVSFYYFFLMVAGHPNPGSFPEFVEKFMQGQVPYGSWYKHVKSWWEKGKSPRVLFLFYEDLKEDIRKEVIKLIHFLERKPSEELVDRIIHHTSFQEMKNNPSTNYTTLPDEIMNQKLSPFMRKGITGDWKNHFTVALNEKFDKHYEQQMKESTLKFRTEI
Protocol: as §1, §2, §3

[1] = 1 mM FFA, corrected by SULT concentration reported in Meinl et al. [2006]
[2] = 1 mM FFA, corrected by actual SULT concentration in the cytosolic preparation

T3 sequence (P50226 whole entry): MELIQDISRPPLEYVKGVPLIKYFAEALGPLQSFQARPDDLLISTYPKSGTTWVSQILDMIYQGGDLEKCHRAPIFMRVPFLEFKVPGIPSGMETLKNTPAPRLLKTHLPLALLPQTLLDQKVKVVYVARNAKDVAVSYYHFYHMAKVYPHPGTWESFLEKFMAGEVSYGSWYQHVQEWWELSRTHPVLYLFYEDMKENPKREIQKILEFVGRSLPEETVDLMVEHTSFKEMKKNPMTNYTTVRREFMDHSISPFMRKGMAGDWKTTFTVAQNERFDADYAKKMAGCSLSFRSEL
T4 sequence (O75897 whole entry): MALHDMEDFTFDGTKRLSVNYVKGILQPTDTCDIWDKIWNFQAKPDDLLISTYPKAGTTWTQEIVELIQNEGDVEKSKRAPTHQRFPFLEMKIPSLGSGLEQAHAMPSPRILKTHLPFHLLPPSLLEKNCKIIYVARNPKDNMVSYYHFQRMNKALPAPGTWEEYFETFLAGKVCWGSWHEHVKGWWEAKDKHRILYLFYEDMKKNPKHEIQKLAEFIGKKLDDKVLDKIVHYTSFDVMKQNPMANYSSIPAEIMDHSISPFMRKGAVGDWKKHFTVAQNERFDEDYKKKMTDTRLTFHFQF
T5 sequence (Q6IMI6 whole entry): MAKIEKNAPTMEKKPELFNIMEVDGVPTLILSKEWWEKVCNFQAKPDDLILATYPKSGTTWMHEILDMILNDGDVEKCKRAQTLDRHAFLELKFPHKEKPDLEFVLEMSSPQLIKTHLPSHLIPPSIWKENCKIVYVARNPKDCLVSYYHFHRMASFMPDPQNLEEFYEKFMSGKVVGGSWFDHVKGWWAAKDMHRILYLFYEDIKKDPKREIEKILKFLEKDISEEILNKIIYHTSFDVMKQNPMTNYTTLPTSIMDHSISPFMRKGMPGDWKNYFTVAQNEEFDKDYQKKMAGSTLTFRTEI
T1 sequence (O00338 whole entry): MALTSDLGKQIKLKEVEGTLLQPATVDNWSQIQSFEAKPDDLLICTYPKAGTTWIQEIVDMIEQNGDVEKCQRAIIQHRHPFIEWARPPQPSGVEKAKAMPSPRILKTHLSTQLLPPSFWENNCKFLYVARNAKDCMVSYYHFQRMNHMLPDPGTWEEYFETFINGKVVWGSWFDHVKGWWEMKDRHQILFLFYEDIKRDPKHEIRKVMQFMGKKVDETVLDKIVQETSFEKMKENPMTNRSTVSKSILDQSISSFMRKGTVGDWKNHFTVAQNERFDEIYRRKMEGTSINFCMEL
T6 sequence (P50225 whole entry): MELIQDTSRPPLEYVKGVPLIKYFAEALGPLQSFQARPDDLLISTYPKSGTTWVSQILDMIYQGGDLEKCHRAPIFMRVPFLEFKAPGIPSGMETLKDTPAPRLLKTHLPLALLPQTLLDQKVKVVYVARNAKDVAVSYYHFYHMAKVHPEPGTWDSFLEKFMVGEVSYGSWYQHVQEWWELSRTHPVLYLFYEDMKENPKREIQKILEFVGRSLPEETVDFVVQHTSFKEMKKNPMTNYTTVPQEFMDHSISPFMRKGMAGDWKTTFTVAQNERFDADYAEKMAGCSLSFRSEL

With `OCc1ccco1` [FFA, furfuryl alcohol] the “Rate of N6-MF-A formation” value (hSULT1C1; 0.1 mM FFA) was under 18 fmol N ^6-MF-A/mg/min, the “Rate of N6-MF-A formation” value (hSULT1C1; 1 mM FFA) was under 20 fmol N ^6-MF-A/mg/min and the “Rate of N6-MF-A formation” value (hSULT1C1; 10 mM FFA) was under 44 fmol N ^6-MF-A/mg/min. For the same molecule, the “Rate of N6-MF-A formation” value (hSULT2A1; 0.1 mM FFA) was under 18 fmol N ^6-MF-A/mg/min, the “Rate of N6-MF-A formation” value (hSULT2A1; 1 mM FFA) was 37.0 ± 0.6 fmol N ^6-MF-A/mg/min and the “Rate of N6-MF-A formation (corr.)” value (hSULT2A1; [1]) was 2,110 ± 40^b fmol N ^6-MF-A/mg/min. For the same molecule, the “Rate of N6-MF-A formation” value (hSULT2A1; 10 mM FFA) was 386 ± 6 fmol N ^6-MF-A/mg/min, the “Rate of N6-MF-A formation” value (hSULT1A2; 0.1 mM FFA) was under 18 fmol N ^6-MF-A/mg/min and the “Rate of N6-MF-A formation” value (hSULT1A2; 1 mM FFA) was 34.8 ± 0.5 fmol N ^6-MF-A/mg/min. The “Rate of N6-MF-A formation (corr.)” value (hSULT1A2; [2]) was 2,480 ± 30 fmol N ^6-MF-A/mg/min, the “Rate of N6-MF-A formation” value (hSULT1A2; 10 mM FFA) was 150 ± 4 fmol N ^6-MF-A/mg/min and the “Rate of N6-MF-A formation” value (hSULT1C2; 0.1 mM FFA) was 51.3 ± 0.8 fmol N ^6-MF-A/mg/min. The “Rate of N6-MF-A formation” value (hSULT1C2; 1 mM FFA) was 459 ± 2 fmol N ^6-MF-A/mg/min, the “Rate of N6-MF-A formation (corr.)” value (hSULT1C2; [2]) was 45,900 fmol N ^6-MF-A/mg/min and 45,900 ± 200 fmol N ^6-MF-A/mg/min and the “Rate of N6-MF-A formation” value (hSULT1C2; 10 mM FFA) was 2,230 ± 10 fmol N ^6-MF-A/mg/min. For the same molecule, the “Rate of N6-MF-A formation” value (hSULT1C3; 0.1 mM FFA) was under 18 fmol N ^6-MF-A/mg/min, the “Rate of N6-MF-A formation” value (hSULT1C3; 1 mM FFA) was 61.8 ± 0.3 fmol N ^6-MF-A/mg/min and the “Rate of N6-MF-A formation (corr.)” value (hSULT1C3; [1]) was 3,090 ± 10^b fmol N ^6-MF-A/mg/min. The “Rate of N6-MF-A formation” value (hSULT1C3; 10 mM FFA) was 248 ± 3 fmol N ^6-MF-A/mg/min, the “Rate of N6-MF-A formation” value (hSULT1A1; 0.1 mM FFA) was 73.5 ± 1.1 fmol N ^6-MF-A/mg/min and the “Rate of N6-MF-A formation” value (hSULT1A1; 1 mM FFA) was 575 ± 2 fmol N ^6-MF-A/mg/min. For the same molecule, the “Rate of N6-MF-A formation (corr.)” value (hSULT1A1; [2]) was 57,500 fmol N ^6-MF-A/mg/min and 57,500 ± 200 fmol N ^6-MF-A/mg/min, the “ratio of N6-MF-A formation rate, hSULT1A1 vs hSULT1A2, 1A3, 1B1, 1C3 and 2A1” value (hSULT1A1; 1 mM FFA, corrected rates) was 11- to 30 fold and the “Rate of N6-MF-A formation” value (hSULT1A1; 10 mM FFA) was 931 ± 5 fmol N ^6-MF-A/mg/min. The “Rate of N6-MF-A formation” value (hSULT1E1; 0.1 mM FFA) was under 18 fmol N ^6-MF-A/mg/min, the “Rate of N6-MF-A formation” value (hSULT1E1; 1 mM FFA) was under 20 fmol N ^6-MF-A/mg/min and the “Rate of N6-MF-A formation” value (hSULT1E1; 10 mM FFA) was 47.0 ± 0.9 fmol N ^6-MF-A/mg/min.
